Read-outs that look alike come from different tables or passages of the source.
Legend:
Assay type in all cases: in vivo
Ambrosia artemisiifolia = assay: Greenhouse pre-emergence (PRE) herbicidal test on AMBEL; settings: Ambrosia artemisiifolia, pre-emergence; for inhibition at 4 g/ha: use rate 4 gai/ha; for inhibition at 8 g/ha: use rate 8 gai/ha
Avena fatua = assay: Greenhouse pre-emergence (PRE) herbicidal test on AVEFA; settings: use rate 8 gai/ha
Method in brief: (§1)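 Damage was rated visually on a 0 to 100 scale at 20 days after treatment, where 0 meant normal growth and 100 meant no emergence or complete kill of above-ground parts. Compounds were applied in water to freshly sown loamy-sand pots.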

Brachiaria decumbens = assay: Greenhouse pre-emergence (PRE) herbicidal test on BRADC; settings: Urochloa decumbens, use rate 8 gai/ha
Method in brief: as §1

Commelina benghalensis = assay: Greenhouse pre-emergence (PRE) herbicidal test on COMBE
Method in brief: (§2)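 Visual 0–100 rating at 20 days after treatment; 0 = normal growth, 100 = no emergence or complete kill of shoots. Pre-emergent application to seeded pots of loamy sand (~3.0% humus), species-dependent temperature 10-25° C or 20-35° C.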

Echinochloa crus-galli = assay: Greenhouse pre-emergence (PRE) herbicidal test on ECHCG; settings: Echinochloa crus-galli, pre-emergence, PRE
Euphorbia heterophylla = assay: Greenhouse pre-emergence (PRE) herbicidal test on EPHHL; settings: Euphorbia heterophylla, pre-emergence
Method in brief: as §2

Galium aparine = assay: Greenhouse pre-emergence (PRE) herbicidal test on GALAP; settings: Galium aparine, pre-emergence; PRE; GALAP; use rate 8 gai/ha
Method in brief: as §1

Geranium pusillum = assay: Greenhouse pre-emergence (PRE) herbicidal test on GERPU; settings: Geranium pusillum, pre-emergence, use rate 8 gai/ha
Method in brief: as §1

`COc1c(Br)cc(F)c(F)c1Nc1nc(N)nc(C(C)(C)F)n1` [Compound I-2] gave an inhibition at 2 g/ha (Ambrosia artemisiifolia; 240 h, PRE, use rate 2 gai/ha, 10 DAT, read-out: % activity) of 20%, an inhibition at 4 g/ha (Ambrosia artemisiifolia; 240 h, PRE, 10 DAT) of 20% and an inhibition at 8 g/ha (Ambrosia artemisiifolia; 240 h, PRE, 10 DAT, read-out: % activity) of 35%. For the same compound, the inhibition at 16 g/ha (Ambrosia artemisiifolia; 240 h, PRE, use rate 16 gai/ha, 10 DAT) was 50%, the pest or weed control at 8 g/ha (Ambrosia artemisiifolia; 432 h, PRE, AMBEL, I-2 solo 8 gai/ha, 18 DAT) was 70% and the inhibition at 2 g/ha (Ambrosia artemisiifolia; 480 h, AMBEL PRE, 20 DAT, use rate 2 gai/ha, read-out: % activity) was 35%. It also gave an inhibition at 8 g/ha (Ambrosia artemisiifolia; 480 h, AMBEL PRE, 20 DAT, read-out: % activity) of 90%, a pest or weed control at 8 g/ha (Ambrosia artemisiifolia; 480 h, PRE, 8 gai/ha, 20 DAT) of 90% and an inhibition at 2 g/ha (Ambrosia artemisiifolia; 480 h, PRE, AMBEL, 2 gai/ha, 20 DAT, read-out: % activity solo application) of 0%. For the same compound, the inhibition at 2 g/ha (Ambrosia artemisiifolia; 480 h, PRE, AMBEL, use rate 2 gai/ha, 20 DAT, read-out: solo application % activity) was 0%, the inhibition at 8 g/ha (Ambrosia artemisiifolia; 480 h, PRE, 20 DAT, read-out: % activity) was 80% and the inhibition at 2 g/ha (Ambrosia artemisiifolia; AMBEL PRE, use rate 2 gai/ha, read-out: % activity) was 30%. For the same compound, the inhibition at 4 g/ha (Ambrosia artemisiifolia; PRE, AMBEL) was 20%, the inhibition at 8 g/ha (Avena fatua) was 50% and the inhibition at 8 g/ha (Brachiaria decumbens; BRADC PRE) was 80%. The inhibition at 8 g/ha (Brachiaria decumbens; PRE, BRADC) was 70%, the pest or weed control at 8 g/ha (Commelina benghalensis; Commelina benghalensis, pre-emergence, 432 h, PRE, COMBE, I-2 solo 8 gai/ha, 18 DAT) was 25% and the inhibition at 2 g/ha (Commelina benghalensis; Commelina benghalensis, pre-emergence, 480 h, COMBE PRE, 20 DAT, use rate 2 gai/ha, read-out: % activity) was 20%. It also gave an inhibition at 8 g/ha (Commelina benghalensis; Commelina benghalensis, pre-emergence, 480 h, COMBE PRE, 20 DAT, use rate 8 gai/ha, read-out: % activity) of 60%, an inhibition at 2 g/ha (Commelina benghalensis; Commelina benghalensis, pre-emergence, 480 h, PRE, COMBE, 2 gai/ha, 20 DAT, read-out: % activity solo application) of 10% and an inhibition at 8 g/ha (Commelina benghalensis; Commelina benghalensis, pre-emergence, 480 h, PRE, COMBE, 8 gai/ha, 20 DAT, read-out: % activity solo application) of 45%. It also gave an inhibition at 8 g/ha (Commelina benghalensis; Commelina benghalensis, pre-emergence, 480 h, PRE, COMBE, use rate 8 gai/ha, 20 DAT, read-out: solo application % activity) of 45%, an inhibition at 8 g/ha (Commelina benghalensis; Commelina benghalensis, pre-emergence, COMBE PRE, use rate 8 gai/ha, read-out: % activity) of 25% and an inhibition at 4 g/ha (Commelina benghalensis; Commelina benghalensis, pre-emergence, PRE, COMBE, use rate 4 gai/ha) of 10%. For the same compound, the “% activity” value (Commelina benghalensis; PRE, COMBE, use rate 4 gai/ha) was 15%, the inhibition at 4 g/ha (Echinochloa crus-galli; 240 h, use rate 4 gai/ha, 10 DAT) was 20% and the inhibition at 8 g/ha (Echinochloa crus-galli; 240 h, use rate 8 gai/ha, 10 DAT, read-out: % activity) was 20%. For the same compound, the inhibition at 16 g/ha (Echinochloa crus-galli; 240 h, use rate 16 gai/ha, 10 DAT) was 25%, the pest or weed control at 2 g/ha (Echinochloa crus-galli; 432 h, ECHCG, I-2 solo 2 gai/ha, 18 DAT) was 10% and the pest or weed control at 8 g/ha (Echinochloa crus-galli; 432 h, ECHCG, I-2 solo 8 gai/ha, 18 DAT) was 25%. The inhibition at 2 g/ha (Echinochloa crus-galli; 480 h, ECHCG, 2 gai/ha, 20 DAT, read-out: % activity solo application) was 0%, the inhibition at 8 g/ha (Echinochloa crus-galli; 480 h, ECHCG, 8 gai/ha, 20 DAT, read-out: % activity solo application) was 90% and the inhibition at 2 g/ha (Echinochloa crus-galli; 480 h, ECHCG, use rate 2 gai/ha, 20 DAT, read-out: solo application % activity) was 0%. It also gave an inhibition at 8 g/ha (Echinochloa crus-galli; 480 h, ECHCG, use rate 8 gai/ha, 20 DAT, read-out: solo application % activity) of 90%, a pest or weed control at 2 g/ha (Echinochloa crus-galli; 480 h, 2 gai/ha, 20 DAT) of 55% and a pest or weed control at 2 g/ha (Euphorbia heterophylla; 432 h, PRE, EPHHL, I-2 solo 2 gai/ha, 18 DAT) of 10%. It also gave a pest or weed control at 8 g/ha (Euphorbia heterophylla; 432 h, PRE, EPHHL, I-2 solo 8 gai/ha, 18 DAT) of 35%, an inhibition at 8 g/ha (Euphorbia heterophylla; 480 h, EPHHL PRE, 20 DAT, use rate 8 gai/ha, read-out: % activity) of 10% and a pest or weed control at 2 g/ha (Euphorbia heterophylla; 480 h, PRE, 2 gai/ha, 20 DAT) of 10%. The pest or weed control at 8 g/ha (Euphorbia heterophylla; 480 h, PRE, 8 gai/ha, 20 DAT) was 10%, the inhibition at 2 g/ha (Euphorbia heterophylla; 480 h, PRE, EPHHL, 2 gai/ha, 20 DAT, read-out: % activity solo application) was 0% and the inhibition at 8 g/ha (Euphorbia heterophylla; 480 h, PRE, EPHHL, 8 gai/ha, 20 DAT, read-out: % activity solo application) was 15%. The inhibition at 2 g/ha (Euphorbia heterophylla; 480 h, PRE, EPHHL, use rate 2 gai/ha, 20 DAT, read-out: solo application % activity) was 0%, the inhibition at 8 g/ha (Euphorbia heterophylla; 480 h, PRE, EPHHL, use rate 8 gai/ha, 20 DAT, read-out: solo application % activity) was 15% and the inhibition at 8 g/ha (Galium aparine) was 15%. The inhibition at 8 g/ha (Geranium pusillum; 480 h, PRE, GERPU, 20 DAT) was 80% and the inhibition at 8 g/ha (Geranium pusillum; GERPU PRE) was 0%.
